In PubChem BioAssay (NCI):
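A five-concentration, 48-hour dose response in 96-well plates underlies each endpoint, interpolated linearly between surrounding concentrations. TGI: concentration producing complete growth inhibition.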

Columns and labels:
Assay in all cases: inhibition of tumour cell growth, NCI panel, 48 h
SK-MEL-5 melanoma = system: SK-MEL-5 melanoma
TK-10 renal = system: TK-10 renal
COLO 205 colon = system: COLO 205 colon
SK-MEL-28 melanoma = system: SK-MEL-28 melanoma
HOP-18 NSCLC = system: HOP-18 NSCLC
U251 CNS = system: U251 CNS
NCI-H522 lung = system: NCI-H522 lung
A549 NSCLC = system: A549 NSCLC
UACC-257 melanoma = system: UACC-257 melanoma
SNB-75 CNS = system: SNB-75 CNS
SF-539 CNS = system: SF-539 CNS

Measured: TGI

CC(=O)OCC1=CC2CCC3C(C)(CCC[C@]3(C)COC(C)=O)C23CC[C@H]1C3 (stereo partly drawn)
58.8 µM: SK-MEL-5 melanoma
49.3 µM: COLO 205 colon
> 100 µM: TK-10 renal | SK-MEL-28 melanoma | HOP-18 NSCLC | U251 CNS | A549 NSCLC | UACC-257 melanoma | SNB-75 CNS | SF-539 CNS
45.4 µM: NCI-H522 lung

COC1(C)CNCC(C)(C)NC(=O)C(C)(OC)CNCC(C)(C)NC1=O (stereo not drawn)
> 100 µM: SK-MEL-5 melanoma | TK-10 renal | COLO 205 colon | SK-MEL-28 melanoma | HOP-18 NSCLC | U251 CNS | NCI-H522 lung | A549 NSCLC | UACC-257 melanoma | SNB-75 CNS | SF-539 CNS

CC(=O)OCC1OC(n2c(O)c(N=NC(N)=S)c3ccc([N+](=O)[O-])cc32)C(OC(C)=O)C1OC(C)=O (stereo not drawn)
87.6 µM: U251 CNS
70.2 µM: SF-539 CNS
> 100 µM: SK-MEL-5 melanoma | TK-10 renal | COLO 205 colon | SK-MEL-28 melanoma | HOP-18 NSCLC | A549 NSCLC | UACC-257 melanoma
82.8 µM: SNB-75 CNS
31.4 µM: NCI-H522 lung
